Test results reported in PMC7395068, “The evolution of strategies to minimise the risk of human drug-induced liver injury (DILI) in drug discovery and development” (Archives of Toxicology, 2020).
Where two headings read alike, the source gives them in different places.

Columns and labels:
[1] = system: rBsep; details: In vitro Assay; ref Dawson 2012; cited from earlier work
[2] = system: hLiMTs; details: cited from earlier work
[3] = ref Chen 2011; cited from earlier work
[4] = system: HepG2 cells; details: In vitro Assay; ref O'Brien 2006; cited from earlier work
[5] = Plasma free fraction (fu) and unbound Cmax (Cmax,u); format: in vitro ADME, human; details: unbound plasma Cmax
Method: The prediction of DILI severity was evaluated further using the 3D combined HCI assays using plasma-free fraction. The majority of fu values were obtained from literature, when unavailable in-house prediction was utilised. Unbound plasma Cmax concentrations (Cmax,u) were derived by multiplying total plasma Cmax with the corresponding free fraction (fu) for each compound.

[6] = system: PHH; details: cited from earlier work
[7] = system: hLiMTs; experiment: Combined HCI (HCS) and cellular ATP 3D assay in hLiMTs; details: for AC50 / minimal effective concentration: Homo sapiens
[8] = system: HepG2 cells; details: cited from earlier work
[9] = plasma free fraction; cited from earlier work
[10] = system: PHH spheroids; details: cited from earlier work
[11] = system: HepaRG spheroids; experiment: Combined HCI (HCS) and cellular ATP 3D assay in HepaRG spheroids; details: for AC50 / minimal effective concentration: Homo sapiens
[12] = system: human hepatocytes; details: In vitro Assay; ref Xu 2008; cited from earlier work
[13] = system: THLE-Null and THLE-3A4 cells; details: In vitro Assay; ref Gustafsson 2014; cited from earlier work
[14] = cited from earlier work
[15] = system: HepG2 cells, primary human hepatocytes; details: In vitro Assay; ref Garside 2014; cited from earlier work
[16] = system: HepG2 cells; details: cited from earlier work; remark: listed apart in the source
[17] = system: Upcyte human hepatocytes; details: In vitro Assay; ref Tolosa 2019; cited from earlier work
[18] = cited from earlier work; remark: listed apart in the source
[19] = cited from earlier work; remark: listed apart in the source
[20] = system: primary human hepatocytes, NIH3T3 fibroblasts, BSEP, CYP3A4; details: cited from earlier work
[21] = system: HepG2 C3A spheroid, BSEP, Glu/Gal in HepG2 cells, bioactivation; details: cited from earlier work
[22] = system: THLE or HepG2 cells, isolated mitochondria, BSEP; details: cited from earlier work
[23] = system: isolated mouse liver mitochondria; details: In vitro Assay; ref Porceddu 2012; cited from earlier work
[24] = In vitro Assay, ref Proctor 2017
[25] = Microtissue model structural based (HCI), combined HCS and ATP, MEC < 25 × Cmax.tot cut-off
[26] = In vitro Assay, ref Persson 2013
[27] = In vitro Assay, ref Schadt 2015
[28] = Modeled in vitro assays (cytotoxicity, mitochondrial dysfunction, BSEP), ref Aleo et al. 2019

## CC(C)C(=O)Nc1ccc([N+](=O)[O-])c(C(F)(F)F)c1 [flutamide, reference compound]
[1]
  Inhibition of rBsep cutoff<1& cmax u>.2: +VE
  Inhibition of rBsep cutoff<3: +VE
[2]; [24]
  hLiMTs ATP <100uM: +VE (IC50 threshold of 100 µM)
[2]; hLiMTs, ATP, IC50 < 100 × Cmax.tot, ref Proctor et al. 2017
  hLiMTs/100xCmax, Proctor (2017): +VE (IC50 < 100 × Cmax.tot)
[2]; hLiMTs, ATP, IC50 threshold 100 µM, ref Proctor et al. 2017
  hLiMTs/100uM, Proctor (2017): +VE (IC50 threshold of 100 µM)
[3]
  DILI Score (FDA) (1-8): 8
[4]
  Structural based (HCI): +VE
[5]
  Human plasma Cmax,u: 0.272 µM
[6]; 2D PHH, ATP, IC50 < 100 × Cmax.tot, ref Proctor et al. 2017
  PHH/100xCmax, Proctor (2017): +VE (IC50 < 100 × Cmax.tot)
[6]; 2D PHH, ATP, IC50 threshold 100 µM, ref Proctor et al. 2017
  PHH/100uM, Proctor (2017): +VE (IC50 threshold of 100 µM)
[6]; [24]
  PHH ATP <100uM: +VE (IC50 threshold of 100 µM)
[7]; read-out: ATP endpoint AC50
  AC50: 29.9 µM
[7]; read-out: ATP endpoint MEC
  minimal effective concentration: 18.5 µM
[7]; read-out: HCS endpoint AC50
  AC50: 43.5 µM
[7]; read-out: HCS endpoint MEC
  minimal effective concentration: 3.63 µM
[7]; [25]
  DILI prediction hLiMTs (HCS-MEC): +VE (MEC < 25 × Cmax.tot cut-off)
[7]; hLiMTs, ATP endpoint, cut-off <25x Avg Cmax
  hLiMTs <25x Avg Cmax ATP: +ve
[7]; hLiMTs, ATP endpoint, cut-off <100x Avg Cmaxu
  hLiMTs <100x Avg Cmaxu ATP: +ve (<100x Avg Cmaxu)
[7]; hLiMTs, HCS endpoints, cut-off <25x Avg Cmax
  hLiMTs <25x Avg Cmax HCS: +ve
[7]; hLiMTs, HCS endpoints, cut-off <100x Avg Cmaxu
  hLiMTs <100x Avg Cmaxu HCS: +ve (<100x Avg Cmaxu)
[7]; hLiMTs, all endpoints (ATP and HCS), cut-off <25x Avg Cmax
  hLiMTs <25x Avg Cmax All: +ve
[7]; hLiMTs, all endpoints, Cmax max used
  hLiMTs Cmax max All: +ve
[7]; hLiMTs, all endpoints, Cmax min used
  hLiMTs Cmax min All: +ve
[7]; hLiMTs, all endpoints, cut-off <10 uM
  hLiMTs <10 uM All: +ve (<10 uM)
[7]; hLiMTs, all endpoints, cut-off <100x Avg Cmaxu
  hLiMTs <100x Avg Cmaxu All: +ve (<100x Avg Cmaxu)
[8]; In vitro Assay, ref Tolosa 2012
  Structural based (HCI): +VE
[8]; Structural based (HCI), HepG2, ref Tolosa et al. 2012
  DILI in vitro assay prediction, Tolosa (2012): +VE
[9]
  fu: 0.050
[10]; In vitro Assay, ref Vorrink 2018
  hLiMTs ATP <20 x Cmax: +VE (IC20 < 20 × Cmax.tot cut-off)
[10]; PHH spheroids, ATP, 14 days, IC20 < 20 × Cmax.tot, ref Vorrink et al. 2018
  DILI in vitro assay prediction, Vorrink (2018): +VE (IC20 < 20 × Cmax.tot cut-off)
[11]; HepaRG, ATP endpoint, cut-off <25x Avg Cmax
  HepaRG <25x Avg Cmax ATP: +ve
[11]; HepaRG, ATP endpoint, cut-off <100x Avg Cmaxu
  HepaRG <100x Avg Cmaxu ATP: +ve (<100x Avg Cmaxu)
[11]; HepaRG, HCS endpoints, cut-off <25x Avg Cmax
  HepaRG <25x Avg Cmax HCS: +ve
[11]; HepaRG, HCS endpoints, cut-off <100x Avg Cmaxu
  HepaRG <100x Avg Cmaxu HCS: +ve (<100x Avg Cmaxu)
[11]; HepaRG, all endpoints (ATP and HCS), cut-off <25x Avg Cmax
  HepaRG <25x Avg Cmax All: +ve
[11]; HepaRG, all endpoints, Cmax max used
  HepaRG Cmax max All: +ve
[11]; HepaRG, all endpoints, Cmax min used
  HepaRG Cmax min All: +ve
[11]; HepaRG, all endpoints, cut-off <10 uM
  HepaRG <10 uM All: +ve (<10 uM)
[11]; HepaRG, all endpoints, cut-off <100x Avg Cmaxu
  HepaRG <100x Avg Cmaxu All: +ve (<100x Avg Cmaxu)
[11]; HepaRG, read-out: ATP endpoint AC50
  AC50: 14.9 µM
[11]; HepaRG, read-out: ATP endpoint MEC
  minimal effective concentration: 7.75 µM
[11]; HepaRG, read-out: HCS endpoint AC50
  AC50: 42.7 µM
[11]; HepaRG, read-out: HCS endpoint MEC
  minimal effective concentration: 13.9 µM
[11]; [25]
  DILI prediction HepaRG spheroids (HCS-MEC): +VE (MEC < 25 × Cmax.tot cut-off)
[12]
  Structural based (HCI): -VE
[13]
  THLE-Null: -VE
  THLE-Null/3A4: -VE
[14]; LTKB DILIrank category, ref Chen et al. 2016
  DILI severity category (Chen et al. [2016]): Most
[14]; human DILI classification, LTKB DILIrank, ref Chen et al. 2016
  DILI severity category (Chen 2016): Most
[14]; human DILI severity, ref Chen et al.
  DILI severity category: Most
[14]; ref Chen 2016
  DILI +VE (5-8), DILI -VE (-4): +VE
  DILI severity category: vMost-DILI-Concern
[15]
  Cluster 1-6 +VE Assay: +VE
[16]; [26]
  Cluser analysis: -VE
  Structural based (HCI): -VE
[16]; Structural based (HCI), HepG2, ref Persson et al. 2013
  DILI in vitro assay prediction, Persson (2013): -VE
[17]
  Upcytes multi donor assay 14day data: +VE
[18]; Chen et al. 2016 or literature alignment, ref Chen et al. 2016
  Assigned DILI category: 3
[18]; […]
  In vivo DILI: +VE
[18]; ref Aleo 2019
  In vivo DILI: +VE
[18]; ref Dawson 2012
  In vivo DILI: +VE
[18]; ref Garside 2014
  In vivo DILI: +VE
[18]; ref Gustafsson 2014
  In vivo DILI: +VE
[18]; ref O'Brien 2006
  In vivo DILI: +VE
[18]; ref Persson 2013
  In vivo DILI: +VE
[18]; ref Porceddu 2012
  In vivo DILI: -VE
[18]; ref Proctor 2017
  In vivo DILI: +VE
[18]; ref Schadt 2015
  In vivo DILI: +VE
[18]; ref Tolosa 2012
  In vivo DILI: +VE
[18]; ref Tolosa 2019
  In vivo DILI: +VE
[18]; ref Vorrink 2018
  In vivo DILI: +VE
[18]; ref Williams 2019
  In vivo DILI: +VE
[18]; ref Xu 2008
  In vivo DILI: +VE
[19]; read-out: Cmax.tot, value used for normalisation, ref O'Brien et al. 2006
  Cmax: 6 µM
[19]; read-out: Cmax.tot, value used for normalisation, ref Xu et al. 2008
  Cmax: 0.36 µM
[19]; read-out: Human plasma Cmax, total plasma Cmax.tot, median of 9 literature references
  Cmax: 5.43 µM
[20]; BSEP & Metabolism based, ref Schadt et al. 2015
  DILI in vitro assay prediction, Schadt (2015): +VE
[20]; [27]
  Cellular toxicity (3T3 cells): -VE
  Combined Assay: +VE
  GSH adduct HML: +VE
  Hepatocyte cellular toxicity: -VE
  MitoTox 3T3: +VE
  TDI CYP3A4: -VE
  hBSEP inhibition: -VE
[21]; Bayesian modeling, ref Williams et al. 2019
  Bayesian Machine Learning DILI prediction, Williams (2019): +VE
[21]; In vitro Assay, ref Williams 2019
  Bayesian Machine Learning: +VE
[22]; In vitro Assay, ref Aleo 2019
  Partition Hybrid HRM Score: +VE
  Ro2 Hybrid HRM Score: +VE
[22]; [28]
  Partition Hybrid HRM Score ≥4, Aleo (2019): +VE (Partition Hybrid HRM Score ≥4)
  Partition Hybrid HRM Score ≥8, Aleo (2019): +VE (Partition Hybrid HRM Score ≥8)
  Rule of Two hybrid HRM Score ≥3, Aleo (2019): +VE (Rule of Two hybrid HRM Score ≥3)
  Rule of Two hybrid HRM Score ≥8, Aleo (2019): +VE (Rule of Two hybrid HRM Score ≥8)
[23]
  in vitro data EC2<=1x Cmax: +VE
  in vitro data EC20<=2uM: -VE
